# Measured values: paper PMC12775434, “Ultra-large virtual screening unveils potent agonists of the neuromodulatory orphan receptor GPR139” (Nature Communications, 2025)
# Where “and” joins values, the source holds several entries; their conditions need not be identical. Equal values may be shown once.
# Experiments:
# Type in all cases: cell-based
# [1] = biological target: T1, GPR139 (Homo sapiens, UniProt Q6DWJ6); assay: Ca2+ mobilization assay, antagonist mode (EC80 800 nM Lundbeck Cmp 1a after 20 min preincubation), GPR139-CHOk1; settings: individual replicates (Supplementary Figure 4)
# T1 sequence (Q6DWJ6 1-353): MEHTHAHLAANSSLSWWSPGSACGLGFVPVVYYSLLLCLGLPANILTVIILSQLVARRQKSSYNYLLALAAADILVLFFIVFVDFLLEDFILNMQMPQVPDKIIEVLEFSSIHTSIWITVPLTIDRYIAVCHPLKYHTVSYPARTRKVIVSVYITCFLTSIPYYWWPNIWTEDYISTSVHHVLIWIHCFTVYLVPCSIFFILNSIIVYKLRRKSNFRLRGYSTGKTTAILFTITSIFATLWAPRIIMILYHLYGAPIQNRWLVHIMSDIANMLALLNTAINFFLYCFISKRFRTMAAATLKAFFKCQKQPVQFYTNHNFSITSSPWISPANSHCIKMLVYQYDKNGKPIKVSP
# Method in brief: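 Antagonist mode: 800 nM (EC80) reference agonist Lundbeck Cmp 1a added following 20 min pre-incubation with 10 µM compound. GPR139-CHOk1 cells, Fluo-4 dye, probenecid-containing HEPES buffer pH 7.4; intracellular Ca2+ measured at 37 °C (ex 485, em 525 nm).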
# [2] = biological target: T2, human muscarinic acetylcholine M1 receptor (M1R) (Homo sapiens, UniProt P11229); assay: Ca2+ mobilization counter-screen in M1R-CHOk1 cells; settings: individual replicates (Supplementary Figure 5)
# T2 sequence (P11229 1-460): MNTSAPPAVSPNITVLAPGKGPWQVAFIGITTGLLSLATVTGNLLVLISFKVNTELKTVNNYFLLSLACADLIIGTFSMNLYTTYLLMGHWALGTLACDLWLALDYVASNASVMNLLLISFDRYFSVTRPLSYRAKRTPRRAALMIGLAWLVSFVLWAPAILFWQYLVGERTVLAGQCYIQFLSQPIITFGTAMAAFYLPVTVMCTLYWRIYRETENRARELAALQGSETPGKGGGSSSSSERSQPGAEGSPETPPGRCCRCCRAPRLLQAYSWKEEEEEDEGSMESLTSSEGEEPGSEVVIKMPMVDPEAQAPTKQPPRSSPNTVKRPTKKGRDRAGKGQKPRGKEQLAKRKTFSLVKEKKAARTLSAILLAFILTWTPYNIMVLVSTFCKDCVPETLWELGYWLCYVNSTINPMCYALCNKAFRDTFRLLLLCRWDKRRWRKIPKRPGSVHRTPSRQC
# Method: Primary screening and pharmacological characterization of compounds were performed using a CHO-K1 cell line that stably expresses human GPR139 (GPR139-CHOk1). The GPR139-CHOk1 cell line was kindly provided by H. Lundbeck A/S, Denmark[24]. GPR139-CHOk1 cells were grown in Ham’s F-12 Kaighn’s Modification Medium (ThermoFisher #21127030) supplemented with 10% dialyzed fetal bovine serum (US origin, ThermoFisher #26400044), 100 units/mL Penicillin-Streptomycin (ThermoFisher #15140122), and 1 mg/mL Geneticin (ThermoFisher #11811031). […] M1R-CHOk1 cells were purchased from The Missouri S&T cDNA Resource Center (#CEM100TN00). M1R-CHOk1 cells were grown in Ham’s F12 Medium (ThermoFisher #21765029) supplemented with 10% fetal bovine serum (Brazilian origin, ThermoFisher #10270106), 100 units/mL Penicillin-Streptomycin, and 0.25 mg/mL Geneticin. HEK293A cells transiently transfected with GPR139 were used for additional pharmacological assessment of signaling pathways activated by GPR139. HEK239A cells were generously provided by Dr. Asuka Inoue, Tohoku University, Japan. HEK293A cells were grown in Dulbecco’s Modified Eagle Medium (ThermoFisher #31966047) supplemented with 10% dialyzed fetal bovine serum and 100 units/mL Penicillin-Streptomycin. Cell lines were maintained at 37 °C in humidified incubator equilibrated with 5% CO2.
# 30,000 GPR139- or M1R-CHOk1 cells/well were seeded in black clear bottom tissue culture treated 96-well plates (Greiner #655090) and grown for 20–24 h. Cells were washed with HEPES buffer (Hank’s Balanced Salt Solution (HBBS) supplemented with 20 mM HEPES, 1 mM MgCl2, and 1 mM CaCl2; pH 7.4). Cells were loaded with 50 µL of 2 µM Fluo-4 AM dye (ThermoFisher #F14202) in HEPES buffer supplemented with 2.5 mM probenecid and 0.01% Pluronic F-68 (ThermoFisher #24040032) for 1 h at 37 °C. Cells were washed with HEPES buffer. 50 µL HEPES buffer supplemented with 2.5 mM probenecid was added, and the cells were incubated for 10 min at 37 °C before measurement. 50 µL test compounds diluted in HEPES buffer from DMSO stocks (final DMSO concentration of maximally 0.3%) were added automatically after baseline measurements. The intracellular calcium mobilization was measured on a FlexStation 3 Multimode Microplate Reader (Molecular Devices) at 37 °C with filters for excitation of 485 nm and emission of 525 nm.
# [3] = biological target: T1, GPR139; assay: Ca2+ mobilization assay, agonist mode, stable GPR139-CHOk1 cell line; settings: for EC50 / Emax: Supplementary Table 2, mean ± SEM; for EC50: read-out: pEC50 Ca2+ (converted); for Emax: normalized to Lundbeck Cmp 1a, read-out: Emax (%) Ca2+
# Method in brief: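 Agonist activity of compounds is assessed in stably transfected CHO-K1 cells using the calcium dye Fluo-4 at 37 °C in HEPES-buffered HBSS (pH 7.4). Efficacy is expressed relative to the reference agonist Lundbeck Cmp 1a, set as 100%.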
# [4] = Agonist mode, individual replicates (Supplementary Figure 4)
# [5] = log [Compound] M = -4.5, individual replicate columns
# [6] = log [Compound] M = -5.0, individual replicate columns
# [7] = log [Compound] M = -5.5, individual replicate columns
# [8] = log [Compound] M = -6.0, individual replicate columns
# [9] = log [Compound] M = -6.5, individual replicate columns
# [10] = log [Compound] M = -7.0, individual replicate columns
# [11] = log [Compound] M = -7.5, individual replicate columns
# [12] = log [Compound] M = -8.0, individual replicate columns
# [13] = log [Compound] M = -8.5, individual replicate columns
# [14] = log [Compound] M = -9.0, individual replicate columns
Structure (SMILES),Ca2+ signal (% of Cmp 1a) [1],Ca2+ signal (% of Carbachol) [2],"Ca2+ signal (% of Cmp 1a) [3, 4]",EC50 [3] [nM],Emax [3] [%],"Ca2+ signal (% of Cmp 1a) [3, 5]","Ca2+ signal (% of Cmp 1a) [3, 6]","Ca2+ signal (% of Cmp 1a) [3, 7]","Ca2+ signal (% of Cmp 1a) [3, 8]","Ca2+ signal (% of Cmp 1a) [3, 9]","Ca2+ signal (% of Cmp 1a) [3, 10]","Ca2+ signal (% of Cmp 1a) [3, 11]","Ca2+ signal (% of Cmp 1a) [3, 12]","Ca2+ signal (% of Cmp 1a) [3, 13]","Ca2+ signal (% of Cmp 1a) [3, 14]"
"Cc1csc(-c2nc(CC(=O)NC(C)c3ccccc3)no2)c1 (stereo not drawn) [Compound 1.11, CC(C1=CC=CC=C1)NC(CC2=NOC(C3=CC(C)=CS3)=N2)=O]",0 % of Cmp 1a and -3 % of Cmp 1a and -25 % of Cmp 1a,-8 % of Carbachol and 27 % of Carbachol and -10 % of Carbachol,83 % of Cmp 1a and 63 % of Cmp 1a and 71 % of Cmp 1a,200,105 ± 10,119 % of Cmp 1a and 103 % of Cmp 1a and 72 % of Cmp 1a and 99 % of Cmp 1a,117 % of Cmp 1a and 110 % of Cmp 1a and 94 % of Cmp 1a and 97 % of Cmp 1a,109 % of Cmp 1a and 87 % of Cmp 1a and 67 % of Cmp 1a and 96 % of Cmp 1a,94 % of Cmp 1a and 70 % of Cmp 1a and 59 % of Cmp 1a and 79 % of Cmp 1a,69 % of Cmp 1a and 58 % of Cmp 1a and 32 % of Cmp 1a and 65 % of Cmp 1a,58 % of Cmp 1a and 48 % of Cmp 1a and 20 % of Cmp 1a and 43 % of Cmp 1a,38 % of Cmp 1a and -18 % of Cmp 1a and -19 % of Cmp 1a and 30 % of Cmp 1a,31 % of Cmp 1a and 1.33 % of Cmp 1a and -4 % of Cmp 1a and 6.33 % of Cmp 1a,6 % of Cmp 1a and 1.67 % of Cmp 1a and 4.67 % of Cmp 1a and 3.33 % of Cmp 1a,10 % of Cmp 1a and 7 % of Cmp 1a and -2.67 % of Cmp 1a and 1.33 % of Cmp 1a
"Cc1ccc(-c2nc(CC(=O)NC(C)c3ccccc3)no2)cc1C (stereo not drawn) [Compound 1.20, CC(C1=CC=CC=C1)NC(CC2=NOC(C3=CC(C)=C(C)C=C3)=N2)=O]",4 % of Cmp 1a and 29 % of Cmp 1a and -0.333 % of Cmp 1a,-9 % of Carbachol and 12 % of Carbachol and 5 % of Carbachol,61 % of Cmp 1a and 51 % of Cmp 1a and 42 % of Cmp 1a,1260,86 ± 11,64 % of Cmp 1a and 88 % of Cmp 1a and 90 % of Cmp 1a,59 % of Cmp 1a and 87 % of Cmp 1a and 93 % of Cmp 1a,48 % of Cmp 1a and 72 % of Cmp 1a and 74 % of Cmp 1a,21 % of Cmp 1a and 45 % of Cmp 1a and 55 % of Cmp 1a,9 % of Cmp 1a and 20 % of Cmp 1a and 28 % of Cmp 1a,10 % of Cmp 1a and 20 % of Cmp 1a and 26 % of Cmp 1a,10 % of Cmp 1a and -2 % of Cmp 1a and 9 % of Cmp 1a,2 % of Cmp 1a and -1.33 % of Cmp 1a and 4.67 % of Cmp 1a,7 % of Cmp 1a and -0.667 % of Cmp 1a and -6 % of Cmp 1a,5 % of Cmp 1a and 1.33 % of Cmp 1a and 10 % of Cmp 1a
"Cc1nonc1Cc1nc(CC(=O)NC(C)c2ccccc2)no1 (stereo not drawn) [Compound 1.33, CC(C1=CC=CC=C1)NC(CC2=NOC(CC3=NON=C3C)=N2)=O]",30 % of Cmp 1a and 49 % of Cmp 1a and 42 % of Cmp 1a,-5 % of Carbachol and 8 % of Carbachol and 10 % of Carbachol,66 % of Cmp 1a and 46 % of Cmp 1a and 64 % of Cmp 1a,3980,88 ± 2,85 % of Cmp 1a (2×) and 90 % of Cmp 1a and 83 % of Cmp 1a,66 % of Cmp 1a and 64 % of Cmp 1a and 75 % of Cmp 1a and 85 % of Cmp 1a,43 % of Cmp 1a and 39 % of Cmp 1a and 20 % of Cmp 1a and 51 % of Cmp 1a,15 % of Cmp 1a and 21 % of Cmp 1a and 26 % of Cmp 1a and -5 % of Cmp 1a,7 % of Cmp 1a and 26 % of Cmp 1a and 10 % of Cmp 1a and -17 % of Cmp 1a,-3.33 % of Cmp 1a and 29 % of Cmp 1a and 0 % of Cmp 1a and -12 % of Cmp 1a,3 % of Cmp 1a and 6.33 % of Cmp 1a and 6 % of Cmp 1a and -13 % of Cmp 1a,1 % of Cmp 1a and 1.67 % of Cmp 1a and 3 % of Cmp 1a and -15 % of Cmp 1a,1.33 % of Cmp 1a (2×) and -3 % of Cmp 1a and -12 % of Cmp 1a,4.33 % of Cmp 1a and 6.33 % of Cmp 1a and 12 % of Cmp 1a and -16 % of Cmp 1a
"Cc1cc(-c2nc(CC(=O)NC(C)c3ccccc3)no2)no1 (stereo not drawn) [Compound 1.23, CC(C1=CC=CC=C1)NC(CC2=NOC(C3=NOC(C)=C3)=N2)=O]",15 % of Cmp 1a and 20 % of Cmp 1a and 10 % of Cmp 1a,-3 % of Carbachol and 4.36 % of Carbachol and 7 % of Carbachol,72 % of Cmp 1a and 57 % of Cmp 1a and 85 % of Cmp 1a,1580,95 ± 3,95 % of Cmp 1a and 102 % of Cmp 1a and 98 % of Cmp 1a and 93 % of Cmp 1a,96 % of Cmp 1a and 81 % of Cmp 1a and 85 % of Cmp 1a and 77 % of Cmp 1a,80 % of Cmp 1a and 55 % of Cmp 1a and 48 % of Cmp 1a and 70 % of Cmp 1a,56 % of Cmp 1a and 30 % of Cmp 1a and 19 % of Cmp 1a and 38 % of Cmp 1a,38 % of Cmp 1a and 9 % of Cmp 1a and -1 % of Cmp 1a and 11 % of Cmp 1a,18 % of Cmp 1a and 5.7 % of Cmp 1a and 1.07 % of Cmp 1a and 6 % of Cmp 1a,12 % of Cmp 1a (2×) and 15 % of Cmp 1a and 0.388 % of Cmp 1a,-3 % of Cmp 1a and 11 % of Cmp 1a and 10 % of Cmp 1a and 0.199 % of Cmp 1a,-4.71 % of Cmp 1a and 7 % of Cmp 1a and 14 % of Cmp 1a and -1.47 % of Cmp 1a,4 % of Cmp 1a and 6.41 % of Cmp 1a and 7 % of Cmp 1a and -2.26 % of Cmp 1a
